This test has as its target human PDGFRβ (Homo sapiens (Human), UniProt P09619). Nature of the test: PDGFRβ kinase assay (PDGFRβ-HTRF). In kind it is biochemical. The conditions noted are these: 10 μM ATP; some mean values from multiple determinations. The gist of the method: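 GST-fused human PDGFRβ fragment (R561-L1106) from Sf9 cells was preincubated 15 min with compound in 50 mM HEPES pH 7.5, 10 mM MgCl2, 2.5 mM DTT, 0.01% Triton X-100; substrate was biotinylated poly-Glu,Tyr (4:1).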
In general terms: In TR-FRET formats the signal depends on donor and acceptor labels being close together.
Chain of human PDGFRβ (P09619 561-1106): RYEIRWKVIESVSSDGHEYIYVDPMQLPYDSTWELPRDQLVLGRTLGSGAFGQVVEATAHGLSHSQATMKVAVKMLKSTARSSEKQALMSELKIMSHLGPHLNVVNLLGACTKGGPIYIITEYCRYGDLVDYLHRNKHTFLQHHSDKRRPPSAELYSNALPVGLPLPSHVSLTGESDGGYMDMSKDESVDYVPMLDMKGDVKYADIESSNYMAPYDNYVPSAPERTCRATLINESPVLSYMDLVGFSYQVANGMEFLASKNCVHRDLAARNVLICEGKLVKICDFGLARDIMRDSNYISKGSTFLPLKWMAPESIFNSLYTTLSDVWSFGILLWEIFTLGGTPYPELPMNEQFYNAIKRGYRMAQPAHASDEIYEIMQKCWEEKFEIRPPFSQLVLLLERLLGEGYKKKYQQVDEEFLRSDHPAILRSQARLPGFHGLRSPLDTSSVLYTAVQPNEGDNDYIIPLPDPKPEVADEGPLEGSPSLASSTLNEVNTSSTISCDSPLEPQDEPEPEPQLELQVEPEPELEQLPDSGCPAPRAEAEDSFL
A word on the IC50: it is the concentration that gives 50% inhibition. Low readings indicate greater potency in that assay, high ones weaker potency in that assay. Take `Cc1ccc(O)cc1Nc1ccnc2c1C(=O)Nc1cc(CNCC3CCN(C(C)C)C3)ccc1N2` (stereo not drawn) [Example 140]: the IC50 was 1.64 nM.

`Cc1cc(F)c(Nc2ccnc3c2C(=O)Nc2cc(C(=O)N4CCCC(O)C4)ccc2N3)cc1O` (racemic) [Example 82, rac-4-[(2-Fluoro-5-hydroxy-4-methylphenyl)amino]-8-[(3-hydroxypiperidin-1-yl)carbonyl]-6, 11-dihydro-5H-pyrido[2,3-b][1,5]benzodiazepin-5-one] displayed an IC50 of 10.1 nM.

Turning to `Cc1ccc(O)cc1Nc1ccnc2c1C(=O)Nc1cc(CNc3ccn(C)n3)ccc1N2` [Example 105], the IC50 was determined as 14.6 nM.

The compound `Cc1ccc(O)cc1Nc1ccnc2c1C(=O)Nc1cc(CNCC3CC3)ccc1N2` [Example 127] had an IC50 of 3.52 nM.

`Cc1cc(F)c(Nc2ccnc3c2C(=O)Nc2cc(C(=O)NC4CCCC(O)C4)ccc2N3)cc1O` (stereo not drawn) [Example 81, 4-[(2-Fluoro-5-hydroxy-4-methylphenyl)amino]-N-(3-hydroxycyclohexyl)-5-oxo-6,11-dihydro-5H-pyrido[2,3-b][1,5]benzodiazepine-8-carboxamide]: it took 1.31 nM to reach half-maximal inhibition (IC50).

As to `Cc1ccc(O)cc1Nc1ccnc2c1C(=O)Nc1cc(CNC3CCN(C)CC3)ccc1N2` [Example 138], the IC50 was determined as 2.41 nM.

The compound `Cc1ccc(O)cc1Nc1ccnc2c1C(=O)Nc1cc(CNC3(C)CCS(=O)(=O)C3)ccc1N2` (stereo not drawn) [Example 98] gave an IC50 of 5.17 nM.

In turn, `CNCc1ccc2c(c1)NC(=O)c1c(Nc3cc(O)ccc3C)ccnc1N2` [Example 22, 4-[(5-Hydroxy-2-methylphenyl)amino]-8-[(methylamino)methyl]-6,11-dihydro-5H-pyrido[2,3-b][1,5]benzodiazepin-5-one] returned an IC50 of 2.84 nM.

As to `Cc1cc(F)c(Nc2ccnc3c2C(=O)Nc2cc(CN4CC[C@@H](N(C)C)C4)ccc2N3)cc1O` [Example 217, 8-{[(3R)-3-(Dimethylamino)pyrrolidin-1-yl]methyl}-4-[(2-fluoro-5-hydroxy-4-methylphenyl)amino]-6,11-dihydro-5H-pyrido[2,3-b][1,5]benzodiazepin-5-one], half-maximal inhibition (IC50) was put at 3.39 nM.

For the compound `Cc1cc(F)c(Nc2ccnc3c2C(=O)Nc2cc(CN4CCN(CCO)CC4)ccc2N3)cc1O` [Example 47, 4-[(2-Fluoro-5-hydroxy-4-methylphenyl)amino]-8-{[4-(2-hydroxyethyl)piperazin-1-yl]methyl}-6,11-dihydro-5H-pyrido[2,3-b][1,5]benzodiazepin-5-one], inhibition was half-maximal at 3.67 nM (IC50).

Compound `CCNCc1ccc2c(c1)NC(=O)c1c(Nc3cc(O)ccc3C)ccnc1N2` [Example 25, 8-[(Ethylamino)methyl]-4-[(5-hydroxy-2-methylphenyl)amino]-6,11-dihydro-5H-pyrido[2,3-b][1,5]benzodiazepin-5-one] showed an IC50 of 3.25 nM.

In the case of `Cc1cc(F)c(Nc2ccnc3c2C(=O)Nc2cc(CN4CCNCC4)ccc2N3)cc1O` [Example 197, 4-[(2-Fluoro-5-hydroxy-4-methylphenyl)amino]-8-(piperazin-1-ylmethyl)-6,11-dihydro-5H-pyrido[2,3-b][1,5]benzodiazepin-5-one], the IC50 stood at 0.861 nM.

Compound `Cc1ccc(O)cc1Nc1ccnc2c1C(=O)Nc1cc(CNCC(F)(F)F)ccc1N2` [Example 14, 4-[(5-Hydroxy-2-methylphenyl)amino]-8-{[(2,2,2-trifluoroethyl)amino]methyl}-6,11-dihydro-5H-pyrido[2,3-b][1,5]benzodiazepin-5-one] registered an IC50 of 9.14 nM.

`N#Cc1ccc2c(c1)NC(=O)c1c(Nc3ccc(NS(=O)(=O)c4ccccc4)c(O)c3)ccnc1N2` [Example 6, N-{4-[(8-Cyano-5-oxo-6,11-dihydro-5H-pyrido[2,3-b][1,5]benzodiazepin-4-yl)amino]-2-hydroxyphenyl}benzenesulphonamide] had an IC50 of 689 nM.

In the case of `Cc1ccc(O)cc1Nc1ccnc2c1C(=O)Nc1cc(CNCCc3ccncc3)ccc1N2` [Example 123], half-maximal inhibition (IC50) required 7.14 nM.

As for `O=C1Nc2cc(CN3CCC(O)CC3)ccc2Nc2nccc(Nc3cc(O)c(Cl)cc3F)c21` [Example 175, 4-[(4-Chloro-2-fluoro-5-hydroxyphenyl)amino]-8-[(4-hydroxypiperidin-1-yl)methyl]-6,11-dihydro-5H-pyrido[2,3-b][1,5]benzodiazepin-5-one], the IC50 is 1.26 nM.

In turn, `Cc1ccc(O)cc1Nc1ccnc2c1C(=O)Nc1cc(CNc3ccccc3)ccc1N2` [Example 26, 8-Anilinomethyl-4-[(5-hydroxy-2-methylphenyl)amino]-6,11-dihydro-5H-pyrido[2,3-b][1,5]benzodiazepin-5-one] displayed an IC50 of 60.3 nM.

As to `Cc1cc(F)c(Nc2ccnc3c2C(=O)Nc2cc(C(=O)N4CCC(CCO)CC4)ccc2N3)cc1O` [Example 161, 4-[(2-Fluoro-5-hydroxy-4-methylphenyl)amino]-8-{[4-(2-hydroxyethyl)piperidin-1-yl]carbonyl}-6,11-dihydro-5H-pyrido[2,3-b][1,5]benzodiazepin-5-one], the midpoint of inhibition, the IC50, lay at 10.7 nM.

As to `Cc1cc(F)c(Nc2ccnc3c2C(=O)Nc2cc(CN4CC5CC5C4CO)ccc2N3)cc1O` (stereo not drawn) [Example 164, 4-[(2-Fluoro-5-hydroxy-4-methylphenyl)amino]-8-{[cis-2-(hydroxymethyl)-3-azabicyclo[3.1.0]hex-3-yl]methyl}-6,11-dihydro-5H-pyrido[2,3-b][1,5]benzodiazepin-5-one], the IC50 was 3.71 nM.

Compound `Cc1ccc(O)cc1Nc1ccnc2c1C(=O)Nc1cc(C#N)ccc1N2` [Example 1, 4-[(5-Hydroxy-2-methylphenyl)amino]-5-oxo-6,11-dihydro-5H-pyrido[2,3-b][1,5]benzodiazepine-8-carbonitrile] came in with an IC50 of 5.43 nM.

For the compound `Cc1cc(F)c(Nc2ccnc3c2C(=O)Nc2cc(CN[C@@H](CO)C(N)=O)ccc2N3)cc1O` [Example 173, N^2-({4-[(2-Fluoro-5-hydroxy-4-methylphenyl)amino]-5-oxo-6,11-dihydro-5H-pyrido[2,3-b][1,5]benzodiazepin-8-yl}methyl)-L-serinamide], the IC50 amounted to 4.41 nM.

In turn, `Cc1cc(F)c(Nc2ccnc3c2C(=O)Nc2cc(CN4CCC(N(C)C)CC4)ccc2N3)cc1O` [Example 211, 8-{[4-(Dimethylamino)piperidin-1-yl]methyl}-4-[(2-fluoro-5-hydroxy-4-methylphenyl)amino]-6,11-dihydro-5H-pyrido[2,3-b][1,5]benzodiazepin-5-one] came in with an IC50 of 1.94 nM.

`Cc1cc(F)c(Nc2ccnc3c2C(=O)Nc2cc(CNC4CC(OC(C)C)C4)ccc2N3)cc1O` (stereo not drawn) [Example 190, 4-[(2-Fluoro-5-hydroxy-4-methylphenyl)amino]-8-{[(3-isopropoxycyclobutyl)amino]methyl}-6,11-dihydro-5H-pyrido[2,3-b][1,5]benzodiazepin-5-one]: the IC50 came to 1.22 nM.

Consider `Cc1ccc(O)cc1Nc1ccnc2c1C(=O)Nc1cc(CNCCN(C)C)ccc1N2` [Example 156], for which the IC50 stood at 3.31 nM.

The compound `Cc1cc(F)c(Nc2ccnc3c2C(=O)Nc2cc(CNCCc4ccncc4)ccc2N3)cc1O` [Example 74, 4-[(2-Fluoro-5-hydroxy-4-methylphenyl)amino]-8-({[2-(pyridin-4-yl)ethyl]amino}methyl)-6,11-dihydro-5H-pyrido[2,3-b][1,5]benzodiazepin-5-one] returned an IC50 of 0.475 nM.

As for `COCCOCCOCCOCCOCCOCCOCCOCCNCc1ccc2c(c1)NC(=O)c1c(Nc3cc(O)c(C)cc3F)ccnc1N2` [Example 185, 4-[(2-Fluoro-5-hydroxy-4-methylphenyl)amino]-8-(2,5,8,11,14,17,20,23-octaoxa-26-azaheptacosan-27-yl)-6,11-dihydro-5H-pyrido[2,3-b][1,5]benzodiazepin-5-one], the IC50 was 25 nM.

In turn, `Cc1ccc(O)cc1Nc1ccnc2c1C(=O)Nc1cc(CNCCN3CCC(C)CC3)ccc1N2` [Example 110] came in with an IC50 of 3.29 nM.

`Cc1cc(F)c(Nc2ccnc3c2C(=O)Nc2cc(C(=O)N4CCOCC4)ccc2N3)cc1O` [Example 85, 4-[(2-Fluoro-5-hydroxy-4-methylphenyl)amino]-8-(morpholin-4-ylcarbonyl)-6,11-dihydro-5H-pyrido[2,3-b][1,5]benzodiazepin-5-one]: the IC50 is 13.9 nM.

On to `Cc1ccc(O)cc1Nc1ccnc2c1C(=O)Nc1cc(CNC[C@H](C)c3ccccc3)ccc1N2` [Example 117], for which the midpoint of inhibition, the IC50, lay at 3.46 nM.

`COc1cc(O)cc(Nc2ccnc3c2C(=O)Nc2cc(C#N)ccc2N3)c1` [Example 9, 4-[(3-Hydroxy-5-methoxyphenyl)amino]-5-oxo-6,11-dihydro-5H-pyrido[2,3-b][1,5]benzodiazepine-8-carbonitrile] yielded an IC50 of 3.83 nM.

`Cc1cc(F)c(Nc2ccnc3c2C(=O)Nc2cc(CN(C)C)ccc2N3)cc1O` [Example 33, 8-[(Dimethylamino)methyl]-4-[(2-fluoro-5-hydroxy-4-methylphenyl)amino]-6,11-dihydro-5H-pyrido[2,3-b][1,5]benzodiazepin-5-one] gave an IC50 of 4.3 nM.

Consider `CCN(CCCO)Cc1ccc2c(c1)NC(=O)c1c(Nc3cc(O)c(C)cc3F)ccnc1N2` [Example 222, 8-{[Ethyl(3-hydroxypropyl)amino]methyl}-4-[(2-fluoro-5-hydroxy-4-methylphenyl)amino]-6,11-dihydro-5H-pyrido[2,3-b][1,5]benzodiazepin-5-one], for which the IC50 came to 1.01 nM.

For the compound `Cc1cc(F)c(Nc2ccnc3c2C(=O)Nc2cc(C(=O)N4CCCC(CCO)C4)ccc2N3)cc1O` (racemic) [Example 179, rac-4-[(2-Fluoro-5-hydroxy-4-methylphenyl)amino]-8-{[3-(2-hydroxyethyl)piperidin-1-yl]carbonyl}-6,11-dihydro-5H-pyrido[2,3-b][1,5]benzodiazepin-5-one], 14.6 nM corresponded to half-maximal inhibition (IC50).

Take `Cc1ccc(O)cc1Nc1ccnc2c1C(=O)Nc1cc(CNCC(O)CO)ccc1N2` (stereo not drawn) [Example 148]: half-maximal inhibition (IC50) was put at 1.52 nM.

Take `N#Cc1ccc2c(c1)NC(=O)c1c(Nc3ccc(Cl)c(O)c3)ccnc1N2` [Example 11, 4-[(4-Chloro-3-hydroxyphenyl)amino]-5-oxo-6,11-dihydro-5H-pyrido[2,3-b][1,5]benzodiazepine-8-carbonitrile]: half-maximal inhibition (IC50) required 4.03 nM.

Compound `COc1ccc(NCc2ccc3c(c2)NC(=O)c2c(Nc4cc(O)ccc4C)ccnc2N3)cc1F` [Example 107] displayed an IC50 of 18.4 nM.

The record behind these values is patent publication US10047096B2, “Substituted pyridobenzodiazepinone-derivatives and use thereof” (Bayer Pharma Aktiengesellschaft, priority 2014, dated 2018).
